Values quoted from earlier work in patent US20220168121A1, “FIBROSIS-INDUCING DRUG-ELUTING STENT FOR BLOCKING ELECTRIC CONDUCTION” (SUNGKWANG MEDICAL FOUNDATION, priority 2019, published 2022).
Structures can show the parent of a compound that is named as a salt.

water solubility	stability in a solid state (solid state)	Structure (SMILES)
water soluble	unstable properties in a solid state	CCCCC(CC)CCC(CC(C)C)OS(=O)(=O)O (stereo not drawn) [sodium tetradecyl sulfate]
water insoluble	–	CCCCCCCCCCCCCCOS(=O)(=O)O [sodium tetradecyl sulfate]
